# Legend:
# Assay in all cases: relative viability (nuclei count vs DMSO), 5 days (fraction); higher = more cells survive
# Sorafenib + Dasatinib = compound: CNC(=O)c1cc(Oc2ccc(NC(=O)Nc3ccc(Cl)c(C(F)(F)F)c3)cc2)ccn1 [Sorafenib] + Cc1nc(Nc2ncc(C(=O)Nc3c(C)cccc3Cl)s2)cc(N2CCN(CCO)CC2)n1 [Dasatinib] (partner 0.075 µM)
# Summary of the method: (§1)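 Relative viability is defined as nuclei in treated wells over nuclei in vehicle wells. Duplicate plates were run and medians reported. Lung cancer cell lines in 1536-well plates were dosed by pin tool one day after seeding, with one drug or with a fixed anchor-drug dose plus five library-drug doses (not always all listed) in √10 steps, and nuclei were counted after 5 days.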
# Sorafenib + Linsitinib = compound: CNC(=O)c1cc(Oc2ccc(NC(=O)Nc3ccc(Cl)c(C(F)(F)F)c3)cc2)ccn1 [Sorafenib] + C[C@]1(O)C[C@@H](c2nc(-c3ccc4ccc(-c5ccccc5)nc4c3)c3c(N)nccn32)C1 [Linsitinib] (partner 1 µM)
# Summary of the method: as §1
# Sorafenib + Lapatinib = compound: CNC(=O)c1cc(Oc2ccc(NC(=O)Nc3ccc(Cl)c(C(F)(F)F)c3)cc2)ccn1 [Sorafenib] + CS(=O)(=O)CCNCc1ccc(-c2ccc3ncnc(Nc4ccc(OCc5cccc(F)c5)c(Cl)c4)c3c2)o1 [Lapatinib] (partner 2 µM)
# Summary of the method: as §1
# Sorafenib + OSI-027 = compound: CNC(=O)c1cc(Oc2ccc(NC(=O)Nc3ccc(Cl)c(C(F)(F)F)c3)cc2)ccn1 [Sorafenib] + COc1cccc2cc(-c3nc([C@H]4CC[C@H](C(=O)O)CC4)n4ncnc(N)c34)[nH]c12 [OSI-027] (partner 0.5 µM)
# Summary of the method: as §1
# Sorafenib + AZD7762 = compound: CNC(=O)c1cc(Oc2ccc(NC(=O)Nc3ccc(Cl)c(C(F)(F)F)c3)cc2)ccn1 [Sorafenib] + NC(=O)Nc1cc(-c2cccc(F)c2)sc1C(=O)N[C@H]1CCCNC1 [AZD7762] (partner 0.2 µM)
# Summary of the method: as §1
Cell Line,relative viability (Sorafenib + Dasatinib; first compound 0.08 µM),relative viability (Sorafenib + Dasatinib; first compound 0.253 µM),relative viability (Sorafenib + Dasatinib; first compound 2.53 µM),relative viability (Sorafenib + Dasatinib; first compound 8 µM),relative viability (Sorafenib + Linsitinib; first compound 0.08 µM),relative viability (Sorafenib + Linsitinib; first compound 0.253 µM),relative viability (Sorafenib + Linsitinib; first compound 2.53 µM),relative viability (Sorafenib + Linsitinib; first compound 8 µM),relative viability (Sorafenib + Lapatinib; first compound 0.08 µM),relative viability (Sorafenib + Lapatinib; first compound 0.253 µM),relative viability (Sorafenib + Lapatinib; first compound 2.53 µM),relative viability (Sorafenib + Lapatinib; first compound 8 µM),relative viability (Sorafenib + OSI-027; first compound 0.08 µM),relative viability (Sorafenib + OSI-027; first compound 0.253 µM),relative viability (Sorafenib + OSI-027; first compound 2.53 µM),relative viability (Sorafenib + OSI-027; first compound 8 µM),relative viability (Sorafenib + AZD7762; first compound 0.08 µM),relative viability (Sorafenib + AZD7762; first compound 0.253 µM),relative viability (Sorafenib + AZD7762; first compound 2.53 µM),relative viability (Sorafenib + AZD7762; first compound 8 µM)
LK-2,0.259,0.267,0.341,0.263,0.672,0.364,0.451,0.516,1.22,0.804,0.906,0.671,0.201,0.193,0.19,0.139,0.394,0.338,0.413,0.134
NCI-H1395,0.454,0.371,0.423,0.329,1.15,0.901,0.991,1.13,1.21,0.714,1.05,0.633,0.691,0.562,0.72,0.459,0.424,–,0.428,0.429
PC-14,0.302,0.256,0.276,0.185,1.03,0.96,0.918,0.756,0.434,0.303,0.401,0.534,0.96,–,0.745,0.321,0.365,0.256,0.444,0.303
EKVX,0.628,0.449,0.376,0.349,1.12,0.983,0.989,0.912,0.248,0.2,0.249,0.229,0.712,0.74,0.701,0.649,0.837,0.638,0.627,0.57
LXF-289,0.292,0.205,0.187,0.196,0.977,0.986,1.04,0.894,0.91,0.831,0.938,–,0.787,0.814,–,0.764,1.12,1.11,1.17,1.05
HCC-827,0.38,0.435,0.299,0.327,0.934,0.88,0.986,0.851,0.23,0.191,0.155,0.237,0.956,0.715,0.723,0.723,0.211,0.207,0.215,0.161
NCI-H1666,0.913,0.788,0.829,–,0.927,0.82,0.656,0.611,0.594,0.674,0.739,0.598,0.912,0.781,0.798,0.692,0.865,0.778,0.797,0.719
HCC-15,0.697,0.68,0.774,0.417,–,0.873,0.846,0.554,0.816,0.777,0.831,0.617,0.631,0.558,0.712,0.386,1.18,1.17,1.05,0.951
HCC-78,0.46,0.393,0.549,0.397,0.562,0.42,0.457,0.573,1.06,0.755,0.815,0.86,0.39,0.304,0.431,0.384,0.846,0.496,0.863,0.768
H3255,0.497,0.344,0.345,0.201,–,0.71,0.903,0.611,0.56,0.222,0.295,0.244,0.634,0.566,0.619,0.349,1.02,0.799,0.937,0.716
NCI-H460,0.554,0.541,0.498,0.416,0.838,0.771,0.684,0.215,1.02,0.868,0.915,0.807,0.761,0.596,0.459,0.0191,0.586,0.444,–,0.414
PC-3 [JPC-3],1.03,0.936,–,–,0.951,0.981,1.01,0.949,0.499,0.439,0.502,0.537,0.805,0.722,0.692,0.617,0.929,0.711,1.07,0.948
NCI-H1792,0.825,0.742,0.863,0.554,0.569,0.511,0.478,0.546,0.948,0.811,0.936,0.879,0.811,0.697,0.695,0.394,0.674,0.483,0.442,0.425
NCI-H2405,0.217,0.183,0.2,0.214,1.1,0.907,0.715,0.502,1.26,0.967,1.09,0.784,0.679,0.662,0.731,0.546,0.819,0.597,0.681,0.63
NCI-H650,0.508,0.367,0.462,0.425,0.81,0.664,0.776,0.716,0.986,0.855,0.946,0.611,0.541,0.363,0.451,0.504,1.31,0.691,0.96,0.936
201T,0.584,0.578,0.596,0.458,1,0.985,1.02,1.06,1.06,0.991,–,1.03,–,0.706,0.804,0.671,0.575,0.554,0.449,–

Cell Line,relative viability (Sorafenib + Dasatinib; first compound 0.08 µM),relative viability (Sorafenib + Dasatinib; first compound 0.253 µM),relative viability (Sorafenib + Dasatinib; first compound 2.53 µM),relative viability (Sorafenib + Dasatinib; first compound 8 µM),relative viability (Sorafenib + Linsitinib; first compound 0.08 µM),relative viability (Sorafenib + Linsitinib; first compound 0.253 µM),relative viability (Sorafenib + Linsitinib; first compound 2.53 µM),relative viability (Sorafenib + Linsitinib; first compound 8 µM),relative viability (Sorafenib + Lapatinib; first compound 0.08 µM),relative viability (Sorafenib + Lapatinib; first compound 0.253 µM),relative viability (Sorafenib + Lapatinib; first compound 2.53 µM),relative viability (Sorafenib + Lapatinib; first compound 8 µM),relative viability (Sorafenib + OSI-027; first compound 0.08 µM),relative viability (Sorafenib + OSI-027; first compound 0.253 µM),relative viability (Sorafenib + OSI-027; first compound 2.53 µM),relative viability (Sorafenib + OSI-027; first compound 8 µM),relative viability (Sorafenib + AZD7762; first compound 0.08 µM),relative viability (Sorafenib + AZD7762; first compound 0.253 µM),relative viability (Sorafenib + AZD7762; first compound 2.53 µM),relative viability (Sorafenib + AZD7762; first compound 8 µM)
NCI-H596,0.68,0.53,0.55,0.461,1.06,0.982,1.07,1.26,1.07,1.11,1.52,0.995,0.732,0.664,0.671,0.447,1.21,1,0.94,0.819
NCI-H2126,0.735,0.533,0.652,0.501,0.754,0.706,0.745,–,0.766,0.642,0.808,0.792,0.824,0.665,0.712,0.703,1.01,1.01,1.07,0.982
NCI-H322M,0.261,0.259,0.319,0.302,0.886,1.05,0.912,0.984,0.597,0.639,0.727,0.665,0.615,0.48,0.542,0.587,0.65,0.511,0.533,0.595
ABC-1,0.625,0.493,0.619,0.351,0.837,0.893,0.918,0.956,1.25,1.19,1.23,0.726,0.575,0.49,0.654,0.37,1.09,0.714,0.876,0.68
LCLC-97TM1,0.984,0.841,0.683,0.676,0.224,0.161,0.153,0.184,0.678,0.707,0.701,0.603,0.552,0.515,0.336,0.272,0.311,0.139,0.229,0.214
NCI-H1993,0.547,0.302,0.554,0.384,0.774,0.675,–,0.819,0.893,0.782,–,0.78,0.477,0.517,0.504,0.435,0.793,0.763,0.913,0.397
NCI-H1651,0.456,0.35,0.612,0.13,1.14,0.885,0.91,0.396,0.912,0.696,0.849,0.365,0.777,0.687,0.655,0.622,0.537,0.362,0.399,0.322
NCI-H358,0.202,0.186,0.379,0.151,0.763,0.85,0.748,0.255,0.453,0.45,0.558,0.519,–,0.75,0.839,–,0.539,–,0.79,0.368
NCI-H727,0.481,0.453,0.399,0.232,0.29,0.226,0.33,0.231,0.777,0.597,0.771,0.486,0.688,0.542,0.619,0.508,0.716,0.6,–,0.502
NCI-H2347,0.74,0.351,0.351,0.308,–,0.921,0.973,0.999,0.945,0.83,0.965,0.968,0.48,0.378,0.458,0.391,0.784,0.664,0.636,0.47
LU99A,0.512,0.504,0.608,0.351,0.533,0.488,0.507,0.496,1.16,0.998,0.952,0.895,0.299,0.27,0.299,0.272,0.369,0.307,0.321,0.155
NCI-H1975,0.423,0.305,0.374,0.314,1.01,1.02,1.08,0.491,1.04,0.835,1.02,0.448,0.812,0.55,0.695,0.375,0.807,0.633,0.803,0.809
NCI-H1734,0.536,0.402,0.402,0.357,0.967,0.836,0.841,0.742,1.06,0.991,0.951,0.663,0.585,0.534,0.584,0.318,0.572,0.497,0.505,–
CAL-12T,0.658,–,0.415,0.114,0.889,–,0.834,0.656,0.768,0.685,0.724,0.682,0.78,0.492,0.565,0.299,0.642,0.528,0.616,0.432
NCI-H647,0.245,0.172,0.174,0.135,1.16,0.992,0.976,0.243,1.18,0.868,1.19,0.426,0.62,0.634,0.506,0.427,0.415,0.298,0.64,0.35
NCI-H1793,0.411,0.356,0.379,0.406,1.18,0.896,1.01,1.21,0.71,0.833,0.949,0.221,0.29,0.303,0.299,0.162,0.926,0.306,0.385,0.146

# — the supplement of paper PMC10307832
